In PubChem BioAssay (NCI):
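Abbreviation: GI50, concentration required for 50% inhibition of growth. Definition used: TGI = concentration required for complete inhibition of growth.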

Key:
Test in all cases: NCI-60 cell line screen, 384-well format
[1] = system: TK-10 renal
[2] = system: ACHN renal
[3] = system: T-47D breast
[4] = system: MDA-MB-435 melanoma
[5] = system: RPMI-8226 leukemia
[6] = system: MDA-MB-231 breast
[7] = system: LOX IMVI melanoma
[8] = system: A498 renal
[9] = system: OVCAR-8 ovarian
[10] = system: NCI-H23 lung
[11] = system: MALME-3M melanoma
[12] = system: NCI-H322M lung
[13] = system: HCT-15 colon
[14] = system: NCI-H460 NSCLC
[15] = system: SK-MEL-5 melanoma
[16] = system: SF-268 CNS
[17] = system: OVCAR-3 ovarian
[18] = system: 786-0 renal
[19] = system: UACC-62 melanoma
[20] = system: MCF7 breast
[21] = system: UO-31 renal
[22] = system: K-562 leukemia
[23] = system: HT29 colon
[24] = system: BT-549 breast
[25] = system: KM12 colon
[26] = system: A549 NSCLC
[27] = system: IGROV1 ovarian
[28] = system: SW-620 colon
[29] = system: CCRF-CEM leukemia
[30] = system: RXF 393 renal
[31] = system: SNB-75 CNS
[32] = system: COLO 205 colon
[33] = system: MDA-MB-468 breast
[34] = system: SF-539 CNS
[35] = system: SK-MEL-28 melanoma
[36] = system: PC-3 prostate
[37] = system: HCC-2998 colon
[38] = system: HOP-92 NSCLC
[39] = system: EKVX NSCLC
[40] = system: UACC-257 melanoma
[41] = system: NCI-H226 lung
[42] = system: CAKI-1 renal
[43] = system: HS 578T breast
[44] = system: HL-60(TB) leukemia
[45] = system: SN12C renal
[46] = system: NCI/ADR-RES ovarian
[47] = system: SK-OV-3 ovarian
[48] = system: SF-295 CNS
[49] = system: MOLT-4 leukemia
[50] = system: OVCAR-4 ovarian
[51] = system: SNB-19 CNS
[52] = system: NCI-H522 lung
[53] = system: OVCAR-5 ovarian
[54] = system: SR leukemia
[55] = system: HOP-62 NSCLC
[56] = system: M14 melanoma
[57] = system: DU-145 prostate

COc1cc2c(cc1-c1c(C)noc1C)cc(C)c(=O)n2Cc1ccccn1
GI50 [1]: 0.367 µM | TGI [1]: 3.81 µM | GI50 [2]: 1.05 µM | TGI [2]: > 100 µM | GI50 [3]: 0.313 µM | TGI [3]: 3.06 µM | GI50 [4]: 1.01 µM | TGI [4]: 2.42 µM | GI50 [5]: 0.106 µM | TGI [5]: 0.316 µM | GI50 [6]: 0.367 µM | TGI [6]: 16.2 µM | GI50 [7]: 0.321 µM | TGI [7]: 1.09 µM | GI50 [8]: 0.418 µM | TGI [8]: 12.4 µM | GI50 [9]: 0.43 µM | TGI [9]: 9.45 µM | GI50 [10]: 0.742 µM | TGI [10]: 5.19 µM | GI50 [11]: 0.274 µM | TGI [11]: 2.18 µM | GI50 [12]: 1.09 µM | TGI [12]: 31.7 µM | GI50 [13]: 0.282 µM | TGI [13]: 1.55 µM | GI50 [14]: 2.12 µM | TGI [14]: 17.5 µM | GI50 [15]: 0.527 µM | TGI [15]: 2.38 µM | GI50 [16]: 2.01 µM | TGI [16]: 11.3 µM | GI50 [17]: 0.374 µM | TGI [17]: 1.65 µM | GI50 [18]: 0.812 µM | TGI [18]: 19.2 µM | GI50 [19]: 0.19 µM | TGI [19]: 1.44 µM | GI50 [20]: 0.257 µM | TGI [20]: 2.48 µM | GI50 [21]: 2.89 µM | TGI [21]: > 100 µM | GI50 [22]: 0.448 µM | TGI [22]: 2.78 µM | GI50 [23]: 0.376 µM | TGI [23]: 5.68 µM | GI50 [24]: 0.262 µM | TGI [24]: 1.68 µM | GI50 [25]: 0.691 µM | TGI [25]: 20.3 µM | GI50 [26]: 0.557 µM | TGI [26]: 18.3 µM | GI50 [27]: 0.566 µM | TGI [27]: 3.33 µM | GI50 [28]: 1.68 µM | TGI [28]: 14.4 µM | GI50 [29]: 0.338 µM | TGI [29]: 1.65 µM | GI50 [30]: 1.98 µM | TGI [30]: 15.3 µM | GI50 [31]: 0.487 µM | TGI [31]: > 100 µM | GI50 [32]: 0.498 µM | TGI [32]: 13.3 µM | GI50 [33]: 0.226 µM | TGI [33]: 0.693 µM | GI50 [34]: 0.805 µM | TGI [34]: 7.54 µM | GI50 [35]: 0.628 µM | TGI [35]: 6.77 µM | GI50 [36]: 1.82 µM | TGI [36]: > 100 µM | GI50 [37]: 0.324 µM | TGI [37]: 1.41 µM | GI50 [38]: 0.234 µM | TGI [38]: 4.54 µM | GI50 [39]: 4.54 µM | TGI [39]: > 100 µM | GI50 [40]: 0.373 µM | TGI [40]: 4.71 µM | GI50 [41]: 0.646 µM | TGI [41]: 5.74 µM | GI50 [42]: 0.342 µM | TGI [42]: 18.5 µM | GI50 [43]: 0.192 µM | TGI [43]: 0.671 µM | GI50 [44]: 0.118 µM | TGI [44]: 0.255 µM | GI50 [45]: 2.18 µM | TGI [45]: 21.5 µM | GI50 [46]: 0.371 µM | TGI [46]: 2.47 µM | GI50 [47]: 0.433 µM | TGI [47]: 3.61 µM | GI50 [48]: 1.75 µM | TGI [48]: 24.9 µM | GI50 [49]: 0.616 µM | TGI [49]: 1.92 µM | GI50 [50]: 0.188 µM | TGI [50]: 0.586 µM | GI50 [51]: 1.13 µM | TGI [51]: 23.6 µM | GI50 [52]: 0.202 µM | TGI [52]: 0.817 µM | GI50 [53]: 0.496 µM | TGI [53]: 21.3 µM | GI50 [54]: 0.14 µM | TGI [54]: 1.15 µM | GI50 [55]: 0.415 µM | TGI [55]: 16.5 µM | GI50 [56]: 0.6 µM | TGI [56]: 21.8 µM | GI50 [57]: 6.45 µM | TGI [57]: > 100 µM
